SMILES strings stand for the structures.

The results in this text go back to publication PMC11114115 (Molecular Pharmacology, 2024).

The assay addresses human M3R (M3 muscarinic acetylcholine receptor) (Homo sapiens, UniProt P20309). In words: cell-based.

Chain of human M3R (M3 muscarinic acetylcholine receptor) (P20309 whole entry): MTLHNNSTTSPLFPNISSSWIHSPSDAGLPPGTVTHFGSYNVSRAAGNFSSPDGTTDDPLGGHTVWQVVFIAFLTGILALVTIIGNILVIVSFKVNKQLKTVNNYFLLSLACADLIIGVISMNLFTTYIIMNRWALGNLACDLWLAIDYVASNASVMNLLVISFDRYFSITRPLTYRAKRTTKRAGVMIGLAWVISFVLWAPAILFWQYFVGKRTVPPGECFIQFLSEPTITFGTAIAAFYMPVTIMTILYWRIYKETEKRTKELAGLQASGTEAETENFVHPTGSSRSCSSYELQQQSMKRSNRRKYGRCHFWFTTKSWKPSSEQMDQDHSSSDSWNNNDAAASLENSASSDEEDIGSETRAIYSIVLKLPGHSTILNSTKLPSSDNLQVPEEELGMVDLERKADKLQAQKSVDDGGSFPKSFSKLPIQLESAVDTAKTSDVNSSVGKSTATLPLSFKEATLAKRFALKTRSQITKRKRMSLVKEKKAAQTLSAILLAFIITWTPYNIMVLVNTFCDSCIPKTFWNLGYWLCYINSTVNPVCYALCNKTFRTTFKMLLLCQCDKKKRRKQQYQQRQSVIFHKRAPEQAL

A word on the EC50: it is the midpoint of the concentration-response curve. In the case of `C[N+](C)(C)CC#CCN1CCCC1=O` [Oxotremorine-M], the EC50 was 12.6 nM. That is a double-digit nanomolar value.
